# What was measured:
# [1] = Observation of general condition in rat STZ-induced diabetes model; format: in vivo; conditions: 20 mg/kg oral, number of animals, 10 per group
# Procedure: (§1) Compound 9 (50 mg/mL) was diluted with water for injection to obtain a 1 mg/mL administration specimen. For the specimens to be administered at 0.1 mg/mL and 0.01 mg/mL, the specimen to be administered at 1 mg/mL was diluted stepwise with water for injection. Each administration specimen was divided into PP disposable tubes every day and stored in a storehouse (freezer: MDF-MU339H-PJ, PHC Corporation) under the condition of freezing (−30° C. to −20° C., measured value: −26.4 to −24.5° C.). Preparation was performed on the day before the start of administration.
# (§2) Water for injection was added to and dissolved in Pregabalin taken out from the capsule to obtain 2 mg/mL. It was prepared before use.
# (§3) • Animal species: rat (SPF) • Strain: Crl: CD (SD) • Date of animal acquisition, gender, age in weeks, number of animals acquired, and weight range after 1 day of acquisition • First and second courses: Apr. 6, 2022, male, 7 weeks old, 35 animals, 217 to 237 g • Third and fourth courses: Apr. 13, 2022, male, 7 weeks old, 35 animals, 216 to 235 g • Source: […].
# (§4) • Dose volume: calculated at 2 mL/kg based on the body weight on the day of administration. • Number of times of administration: once • Day of administration: 7 days before the day of starting administration of the test substance.
# (§5) • Dose volume: calculated at 1 mL/kg based on the body weight on the day of administration. • Number of times of administration: 9 times • Interval of administration: once every 3 days (evaluation was performed on the day after administration) • Day of starting administration: day 8 of STZ administration (day of STZ administration is counted as day 1).
# (§6) • Dose volume: calculated at 10 mL/kg based on the body weight on the day of administration. • Number of times of administration: Administration was performed once on the day of evaluation of neuropathic pain, twice in total, and on the other days of administration, a vehicle for a control substance (water for injection) was orally administered.
# • Observation of general condition • Observation was performed once a day.
# [2] = system: STZ-induced diabetic rats; test: von Frey test in rat STZ-induced diabetes model; format: in vivo; conditions: for 50% withdrawal threshold by von Frey test: mean ± SE, n=10
# Procedure: The activity of the compound of the present disclosure was evaluated according to the following procedure.
# as §1, §2, §3
# Among the animals having a 50% withdrawal threshold of 8 g or more in the von Frey test measured during the preliminary breeding period, two animals from young animals with animal numbers were assigned to non-diabetes-induced animals, and the remaining animals were assigned to diabetes-induced animals.
# Among the diabetes-induced animals, animals having a blood glucose level of 300 mg/dL or less were excluded from the grouping subjects, and were grouped using a computer program (IBUKI, Nihon Bioresearch Center, Inc.) so that the body weight and the average blood glucose level of each group were approximately equal. That is, the animals for the first and second courses and the third and fourth courses were grouped into one non-diabetes animal for Group 1, and 5 […] animals for Groups 2 to 6. Note that the grouping was performed so that there were 4 examples in Group 1 and 10 examples in each of Groups 2 to 6.
# • Administration method: Using a syringe (Terumo Corporation) equipped with a 25 G winged injection needle (Terumo Corporation), tail vein administration was performed. Note that a 0.75 mmol/L CAB solution was administered to a non-diabetes-induced control group.
# as §4
# • Administration method: Using a syringe (Terumo Corporation) equipped with a 25 G winged injection needle (Terumo Corporation), tail vein administration was performed. Note that physiological saline was administered to the non-diabetes control group and the diabetes control group.
# as §5
# • Administration method: Using a polypropylene disposable syringe (Terumo Corporation) equipped with a metal oral zonde for a rat (Fuchigami kikai Ltd.), forced oral administration was performed.
# as §6, with “administered. […]” for “administered.”
smiles,measurement,setting,value
"CC(C)C[C@H](CN)CC(=O)O [Pregabalin, reference compound]",general condition,[1]; day 1 of STZ administration,10
same,general condition,[1]; day 2 of STZ administration,10
same,general condition,[1]; day 3 of STZ administration,10
same,general condition,[1]; day 4 of STZ administration,10
same,general condition,[1]; day 5 of STZ administration,10
same,general condition,[1]; day 6 of STZ administration,10
same,general condition,[1]; day 7 of STZ administration,10
same,general condition,[1]; day 8 of STZ administration,10
same,general condition,[1]; day 9 of STZ administration,10
same,general condition,[1]; day 10 of STZ administration,10
same,general condition,[1]; day 11 of STZ administration,10
same,general condition,[1]; day 12 of STZ administration,10
same,general condition,[1]; day 13 of STZ administration,10
same,general condition,[1]; day 14 of STZ administration,10
same,general condition,[1]; day 15 of STZ administration,10
same,general condition,[1]; day 16 of STZ administration,10
same,general condition,[1]; day 17 of STZ administration,10
same,general condition,[1]; day 18 of STZ administration,10
same,general condition,[1]; day 19 of STZ administration,10
same,general condition,[1]; day 20 of STZ administration,10
same,general condition,[1]; day 21 of STZ administration,10
same,general condition,[1]; day 22 of STZ administration,10
same,general condition,[1]; day 23 of STZ administration,10
same,general condition,[1]; day 24 of STZ administration,10
same,general condition,[1]; day 25 of STZ administration,10
same,general condition,[1]; day 26 of STZ administration,10
same,general condition,[1]; day 27 of STZ administration,10
same,general condition,[1]; day 28 of STZ administration,10
same,general condition,[1]; day 29 of STZ administration,10
same,general condition,[1]; day 30 of STZ administration,10
same,general condition,[1]; day 31 of STZ administration,10
same,general condition,[1]; day 32 of STZ administration,10
same,general condition,[1]; day 33 of STZ administration,10
same,general condition,[1]; day 34 of STZ administration,10
same,general condition,[1]; day 35 of STZ administration,10
same,50% withdrawal threshold by von Frey test,"[2]; 20 mg/kg oral group, Pre: before STZ administration",12.7 ± 0.7 g
same,50% withdrawal threshold by von Frey test,"[2]; 20 mg/kg oral, 3 hours after administration, day 14 of STZ administration",14.5 ± 0.5 g
same,50% withdrawal threshold by von Frey test,"[2]; 20 mg/kg oral, 3 hours after administration, day 28 of STZ administration",14.1 ± 0.7 g
same,change in the 50% withdrawal threshold (von Frey test),"[2]; 20 mg/kg oral, both 14 days and 28 days after STZ administration, as compared with the diabetes control group",significant increase
